Experimental data published in patent US7332476B2, “Pyridyl substituted ketolide antibiotics” (Novartis AG, priority 2003, dated 2008).
≈ marks a conversion by molar mass, not a printed value.

Legend:
Experiment in all cases: MIC, broth microdilution (NCCLS)
[1] = tested on: Streptococcus pneumoniae Stpn_Erm S 4297; format: cell-based
How it was run: (§1)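 NCCLS broth microdilution with 2-fold serial drug dilutions (methanol stocks diluted in water); inoculum 3×10^5–7×10^5 CFU/ml in CAMHB, with 2-5% lysed horse blood for S. pneumoniae. Incubation 18-24 h at 35° C., ambient air, except S. pneumoniae (5-10% CO2). MIC is lowest concentration preventing visible growth.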

[2] = tested on: Haemophilus influenzae Hain_49247; format: cell-based; conditions: unit assumed
[3] = tested on: Enterococcus faecalis Enfa_29212; format: cell-based; conditions: in µg/mL (unit assumed)
How it was run: as §1

[4] = tested on: Streptococcus pneumoniae Stpn_Mef S 3427; format: cell-based; conditions: Table 5, Strain ID K (Table 4): S. pneumoniae Stpn_Mef S 3427
How it was run: as §1

[5] = tested on: Staphylococcus epidermidis Step_14990; format: cell-based; conditions: in µg/mL (unit assumed)
How it was run: as §1

[6] = tested on: Staphylococcus epidermidis Step_f50654; format: cell-based; conditions: in µg/mL (unit assumed); for MIC: Table 5, Strain ID B (Table 4): S. epidermidis Step_f50654 Pen S
How it was run: as §1

E. coli Esco_25922 = format: cell-based; conditions: Table 5, Strain ID M (Table 4): E. coli Esco_25922; unit assumed
Protocol: Strains. The bacterial isolates listed in Table 4 were cultivated from −70° C. frozen stocks by two consecutive overnight passages (P1, P2) at 35° C. on 5% blood agar (Remel, Lenexa, Kans.). Chocolate agar (Remel) is used for Haemophilus influenzae. H. influenzae and Streptococcus pneumoniae are incubated in 5-10% CO2
Drug Stock Preparation. To determine the amount of solvent to be used to give the desired final concentration, the formula “weight obtained in mg/final concentration in mg/ml” will be used. It will give the amount of solvent in ml needed to be added to give the desired concentration. For example, if 2.5 mg/ml is the desired concentration and the weight of compound is 13.7 mg, then the amount of solvent to be added is […]. Methanol is used as the solvent to dissolve the test compounds. Further dilution of stock is done in sterile, deionized water. Drug stocks are kept frozen at −70° C., protected from light.
Susceptibility Testing. MICs are determined by the broth microdilution method in accordance with the NCCLS guidelines. In brief, organism suspensions are adjusted to a 0.5 McFarland standard to yield a final inoculum between 3×10^5 and 7×10^5 CFU/ml. Drug dilutions and inocula are made in sterile, cation adjusted Mueller-Hinton Broth (CAMHB) (Remel) for all but S. pneumoniae [CAMHB with 2-5% lysed horse blood (Remel)] and H. influenzae [Haemophilus Test Medium (Remel)]. An inoculum volume of 100 μl is added to wells containing 100 μl of broth with 2-fold serial dilutions of drug. All inoculated microdilution trays are incubated in ambient air at 35° C. for 18-24 hours, except for S. pneumoniae, and H. influenzae (both at 5-10% CO2).
Following appropriate incubation, the MIC is determined and the MIC is defined as the lowest concentration of the drug that prevented visible growth.

[7] = tested on: Streptococcus pyogenes Stpy_8668; format: cell-based; design: MIC, strain ID G: unit not given beside the values; conditions: for MIC: Table 5, Strain ID D (Table 4): S. pyogenes Stpy_8668
How it was run: as §1

[8] = tested on: S. pneumoniae Stpn_Erm 6849; format: cell-based, Streptococcus pneumoniae; conditions: for MIC: Table 5, Strain ID H (Table 4): S. pneumoniae Stpn_Erm 6849, unit assumed
How it was run: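 S. pneumoniae MIC by NCCLS broth microdilution in cation-adjusted Mueller-Hinton broth with 2-5% lysed horse blood, inoculum 3×10^5–7×10^5 CFU/ml, 2-fold drug dilutions. Incubated 18-24 hours at 35° C. in 5-10% CO2; MIC is lowest concentration preventing visible growth.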

[9] = tested on: Streptococcus pneumoniae Stpn_49619; format: cell-based; design: MIC, strain ID M: unit not given beside the values; conditions: for MIC: Table 5, Strain ID E (Table 4): S. pneumoniae Stpn_49619
How it was run: as §1

[10] = tested on: Streptococcus pneumoniae Stpn_Mef 5654; format: cell-based; conditions: Table 5, Strain ID J (Table 4): S. pneumoniae Stpn_Mef 5654; in µg/mL (unit assumed)
How it was run: as §1

[11] = tested on: Streptococcus pneumoniae Stpn_280-962; format: cell-based; design: MIC, strain ID O: unit not given beside the values; conditions: for MIC: Table 5, Strain ID G (Table 4): S. pneumoniae Stpn_280-962 Pen S
How it was run: as §1

[12] = tested on: Streptococcus pneumoniae Stpn_297-749; format: cell-based; design: MIC, strain ID N: unit not given here; conditions: for MIC: Table 5, Strain ID F (Table 4): S. pneumoniae Stpn_297-749 Pen R
How it was run: as §1

[13] = tested on: Haemophilus influenzae Hain_960820544-3; format: cell-based; conditions: strain ID J; broth microdilution; in µg/mL (unit assumed)
How it was run: (§2)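 MIC read visually as lowest drug concentration with no growth after 18-24 h at 35° C; ambient air for staphylococci and enterococci, 5-10% CO2 for H. influenzae. Inoculum 3×10^5–7×10^5 CFU/ml; CAMHB or Haemophilus Test Medium.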

[14] = tested on: Haemophilus influenzae Hain_2762; format: cell-based; conditions: strain ID L; broth microdilution; in µg/mL (unit assumed)
How it was run: as §2

[15] = tested on: Haemophilus influenzae Hain_960730503-3; format: cell-based; conditions: strain ID I; broth microdilution; in µg/mL (unit assumed)
How it was run: as §2

[16] = tested on: Enterococcus faecalis Enfa_bc 11148-2; format: cell-based; conditions: strain ID F; broth microdilution; in µg/mL (unit assumed)
How it was run: as §2

[17] = tested on: Haemophilus influenzae Hain_953460299-3; format: cell-based; conditions: strain ID K; broth microdilution; in µg/mL (unit assumed)
How it was run: as §2

[18] = tested on: Staphylococcus aureus Stau_33591; format: cell-based; conditions: strain ID B; broth microdilution; unit assumed
How it was run: as §2

[19] = tested on: Staphylococcus aureus Stau_29213; format: cell-based; conditions: strain ID A; broth microdilution; in µg/mL (unit assumed)
How it was run: as §1

Structure (SMILES): CC[C@H]1OC(=O)[C@H](C)C(=O)[C@H](C)[C@@H](OC2O[C@H](C)C[C@H](N(C)C)[C@H]2O)[C@@](C)(OC)C[C@@H](C)C(=O)[C@H](C)[C@@H]2[C@@H]1OC(=O)N2CCCn1cnc2cccnc21 (stereo partly drawn) [Compound 4716]
- MIC ([1]; Table 5, Strain ID I (Table 4): S. pneumoniae Stpn_Erm S 4297, unit assumed): 25 µg/mL (≈ 33 µM)
- MIC ([2]; Table 5, Strain ID L (Table 4): H. influenzae Hain_49247): 25 µg/mL (≈ 33 µM)
- MIC ([3]; Table 5, Strain ID C (Table 4): E. faecalis Enfa_29212): 0.78
- MIC ([4]; in µg/mL (unit assumed)): 0.4
- MIC ([5]; Table 5, Strain ID A (Table 4): S. epidermidis Step_14990): 6.25
- MIC [6]: 12.5
- MIC (E. coli Esco_25922): > 50 µg/mL
- MIC ([7]; unit assumed): 0.1 µg/mL (≈ 0.132 µM)
- MIC [8]: > 50 µg/mL
- MIC [9]: =0.5
- MIC [10]: 0.78
- MIC [11]: =0.5
- MIC [12]: =0.5

Structure (SMILES): CC[C@H]1OC(=O)[C@H](C)C(=O)[C@H](C)[C@@H](OC2O[C@H](C)C[C@H](N(C)C)[C@H]2O)[C@@](C)(OC)C[C@@H](C)C(=O)[C@H](C)[C@H]2N(CCCCc3ccnc4ccccc34)C(=O)O[C@]12CC (stereo partly drawn) [Compound 7283]
- MIC [4]: =0.05
- MIC [6]: 0.2
- MIC (E. coli Esco_25922): 12.5 µg/mL (≈ 15.4 µM)
- MIC [7]: =0.05
- MIC [8]: 0.4 µg/mL (≈ 0.494 µM)
- MIC [9]: =0.05
- MIC [10]: 0.4
- MIC [11]: =0.05
- MIC [12]: =0.05

Structure (SMILES): C=C[C@]12OC(=O)N(CCCCn3cnc(-c4cnccc4OC)c3)[C@@H]1[C@@H](C)C(=O)[C@H](C)C[C@](C)(OC)[C@H](OC1O[C@H](C)C[C@H](N(C)C)[C@H]1O)[C@@H](C)C(=O)[C@@H](C)C(=O)O[C@@H]2CC (stereo partly drawn) [XXXV]
- MIC, strain ID J [13]: 6.25
- MIC, strain ID L [14]: 1.56
- MIC, strain ID I [15]: 6.25
- MIC, strain ID F [16]: 0.78
- MIC, strain ID K [17]: 6.25
- MIC, strain ID B [18]: > 50 µg/mL
- MIC, strain ID Q ([1]; strain ID Q, broth microdilution, in µg/mL (unit assumed)): 0.2
- MIC, strain ID H ([2]; strain ID H, broth microdilution): 6.25 µg/mL (≈ 7.32 µM)
- MIC, strain ID A [19]: 0.2
- MIC, strain ID E ([3]; strain ID E, broth microdilution): 0.1
- MIC, strain ID C ([5]; strain ID C, broth microdilution): 0.1
- MIC, strain ID D ([6]; strain ID D, broth microdilution): 0.1
- MIC, strain ID G ([7]; strain ID G, broth microdilution): =0.05
- MIC, strain ID P ([8]; strain ID P, broth microdilution, in µg/mL (unit assumed)): 0.78
- MIC, strain ID M ([9]; strain ID M, broth microdilution): =0.05
- MIC, strain ID O ([11]; strain ID O, broth microdilution): =0.05
- MIC, strain ID N ([12]; strain ID N, broth microdilution): =0.05
